From patent EP0522944A2, “Use of 3-(3-pyridinyl)-1H,3H-pyrrolo(1,2-c)thiazole-7-carboxamide for the treatment of retroviral infections” (RHONE-POULENC RORER S.A., priority 1991, dated 1993)

Experiments:
Type in all cases: cell-based
cellules U1 = experiment: Viability of the U1 cells in presence of the product; conditions: whatever the concentration used (0,1 to 100 µM)
Protocol: (§1) Les cultures cellulaires sont prélévées en phase de croissance exponantielle et remises en culture à raison d'une concentration finale de 2x105 cellules/ml, en présence de différentes concentrations du produit à étudier. 30 minutes après, l'ensemble des cultures est additionné de TNFa ou de GM-CSF (Granulocyte Macrophage Colony Stimulating Factor) plus 11-6 (Interleukine-6). Chaque essai est fait en double, excepté les contrôles qui sont faits en quadruple. Chaque jour suivant, une fraction de surnageant des cultures est prélevée, et congelée en vue de la mesure de la reverse transcriptase. Les cellules sont nourries si nécessaire, avec du milieu frais ne contenant ni produit à étudier, ni activateur.

virus HIV-1 [1] = experiment: Reverse transcriptase activity as indicator of viral production in chronically HIV-1 infected U1 cells stimulated with TNFa or GM-CSF + IL-6 (first series)
Source text: Les effets du (+) (pyridyl-3)-3 1H,3H-pyrrolo[1,2-c] thiazolecarboxamide-7 sur l'induction du virus HIV-1 ont été étudiés sur des lignées cellulaires chroniquement infectées.
(§2) On utilise des lignées cellulaires U1 obtenues après infection de la lignée promonocytaire, U937, par le virus HIV-1 et sélectionnée le selon la capacité à augmenter la production virale en réponse au Phorbol My- ristate Acétate (PMA), au TNF et à d'autres médiateurs [Folks et al., Science, 238, 800 (1987)]. L'activité de la reverse transcriptase est utilisée comme un indicateur de la production virale. On analyse ainsi l'effet de concentrations croissantes du produit à étudier sur des lignées cellulaires stimulées.
as §1
(§3) La mesure de l'activité de la reverse transcriptase est faite par les techniques connues, en double exemplaire [Strebel et al., Nature, 328, 728 (1987)].
Le (+) (pyridyl-3)-3 1 H,3H-pyrrolo[1,2-c]thiazole carboxamide-7 est étudié aux concentrations de 100, 10, 1 et 0,1 µM.
Le TNFa est additionné à raison de 100, 10 ou 1 Unités/ml. Le GM-CSF + 11-6 est additionné à raison de 100 U/mi. Certains contrôles ne recoivent pas l'activateur. D'autres contrôles ne reçoivent pas le produit à étudier. D'autres ne reçoivent ni le produit ni l'activateur.

virus HIV-1 [2] = experiment: Duration of action: pretreatment of U1 cells with the product before stimulation by TNF, PMA or GM-CSF + IL-6, reverse transcriptase production (second series)
Source text: as §2
Les cultures cellulaires sont prélévées en phase de croissance exponantielle et remises en culture à raison d'une concentration finale de 2x105 cellules/ml, en présence de différentes concentrations du produit à étudier. […] Chaque essai est fait en double, excepté les contrôles qui sont faits en quadruple. Chaque jour suivant, une fraction de surnageant des cultures est prélevée, et congelée en vue de la mesure de la reverse transcriptase. Les cellules sont nourries si nécessaire, avec du milieu frais ne contenant ni produit à étudier, ni activateur.
as §3
Dans une seconde série d'essais, la durée d'action du (+) (pyridyl-3)-3 1H,3H-pyrrolo[1,2-c]thiazolecarboxamide-7 a été testée.

Question: Which results are given for `NC(=O)c1ccn2c1CSC2c1cccnc1` (single isomer, unassigned; (+)) [produit, (+) (pyridyl-3)-3 1H,3H-pyrrolo[1,2-c]thiazole carboxamide-7]?
Answer: viabilité des cellules (cellules U1): sans effet; inhibition at 100 µM (virus HIV-1 [1]; Human immunodeficiency virus 1, 72 h, U1 cells, 100 Unités/ml TNFa, day 3, product 10-^4M, read-out: diminution de l'activité de la reverse transcriptase): 84%; inhibition at 10 µM (virus HIV-1 [1]; Human immunodeficiency virus 1, 72 h, U1 cells, 100 Unités/ml TNFa, day 3, product 10^-5M, read-out: diminution de l'activité de la reverse transcriptase): 50%; diminution de la production virale (virus HIV-1 [1]; U1 cells treated with TNFa): significative et dose-dépendante; action inhibitrice du HIV-1 dans les cellules U1 (virus HIV-1 [1]; stimulated by GM-CSF + II-6): significative; Production de Reverse Transcriptase Coups par minute (cpm) (virus HIV-1 [2]; Tableau I, U1 cells + product 100µM, no stimulation, contact time 0,5 h): <100 cpm; Production de Reverse Transcriptase Coups par minute (cpm) (virus HIV-1 [2]; Tableau I, U1 cells + product 100µM, no stimulation, contact time 2 h): <100 cpm; Production de Reverse Transcriptase Coups par minute (cpm) (virus HIV-1 [2]; Tableau I, U1 cells + product 100µM, no stimulation, contact time 7 h): <100 cpm; Production de Reverse Transcriptase Coups par minute (cpm) (virus HIV-1 [2]; Tableau I, U1 cells + product 100µM, no stimulation, contact time 10 h): <100 cpm; Production de Reverse Transcriptase Coups par minute (cpm) (virus HIV-1 [2]; Tableau II, U1 cells + product 100µM, no stimulation, contact time 0,5 h): env.100 cpm; Production de Reverse Transcriptase Coups par minute (cpm) (virus HIV-1 [2]; Tableau II, U1 cells + product 100µM, no stimulation, contact time 2 h): env.100 cpm; Production de Reverse Transcriptase Coups par minute (cpm) (virus HIV-1 [2]; Tableau II, U1 cells + product 100µM, no stimulation, contact time 7 h): env.100 cpm; Production de Reverse Transcriptase Coups par minute (cpm) (virus HIV-1 [2]; Tableau II, U1 cells + product 100µM, no stimulation, contact time 10 h): <100 cpm; Production de Reverse Transcriptase Coups par minute (cpm) (virus HIV-1 [2]; Tableau III, U1 cells + product 100µM, no stimulation, contact time 0,5 h): 180 cpm; Production de Reverse Transcriptase Coups par minute (cpm) (virus HIV-1 [2]; Tableau III, U1 cells + product 100µM, no stimulation, contact time 2 h): 150 cpm; Production de Reverse Transcriptase Coups par minute (cpm) (virus HIV-1 [2]; Tableau III, U1 cells + product 100µM, no stimulation, contact time 7 h): 180 cpm; Production de Reverse Transcriptase Coups par minute (cpm) (virus HIV-1 [2]; Tableau III, U1 cells + product 100µM, no stimulation, contact time 10 h): 160 cpm; Production de Reverse Transcriptase Coups par minute (cpm) (virus HIV-1 [2]; U1 cells + product 100µM + GM-CSF (100U) + IL6 (100U), contact time before stimulation 0,5 h): 200 cpm; Production de Reverse Transcriptase Coups par minute (cpm) (virus HIV-1 [2]; U1 cells + product 100µM + GM-CSF (100U) + IL6 (100U), contact time before stimulation 2 h): 180 cpm; Production de Reverse Transcriptase Coups par minute (cpm) (virus HIV-1 [2]; U1 cells + product 100µM + GM-CSF (100U) + IL6 (100U), contact time before stimulation 7 h): 170 cpm; Production de Reverse Transcriptase Coups par minute (cpm) (virus HIV-1 [2]; U1 cells + product 100µM + GM-CSF (100U) + IL6 (100U), contact time before stimulation 10 h): 180 cpm; Production de Reverse Transcriptase Coups par minute (cpm) (virus HIV-1 [2]; U1 cells + product 100µM + PMA (10^-7), contact time before stimulation 0,5 h): 4700 cpm; Production de Reverse Transcriptase Coups par minute (cpm) (virus HIV-1 [2]; U1 cells + product 100µM + PMA (10^-7), contact time before stimulation 2 h): 1900 cpm; Production de Reverse Transcriptase Coups par minute (cpm) (virus HIV-1 [2]; U1 cells + product 100µM + PMA (10^-7), contact time before stimulation 7 h): 1900 cpm; Production de Reverse Transcriptase Coups par minute (cpm) (virus HIV-1 [2]; U1 cells + product 100µM + PMA (10^-7), contact time before stimulation 10 h): 900 cpm; Production de Reverse Transcriptase Coups par minute (cpm) (virus HIV-1 [2]; U1 cells + product 100µM + TNFα(100U), contact time before stimulation 0,5 h): 300 cpm; Production de Reverse Transcriptase Coups par minute (cpm) (virus HIV-1 [2]; U1 cells + product 100µM + TNFα(100U), contact time before stimulation 2 h): 200 cpm; Production de Reverse Transcriptase Coups par minute (cpm) (virus HIV-1 [2]; U1 cells + product 100µM + TNFα(100U), contact time before stimulation 7 h): 180 cpm; Production de Reverse Transcriptase Coups par minute (cpm) (virus HIV-1 [2]; U1 cells + product 100µM + TNFα(100U), contact time before stimulation 10 h): env.100 cpm; effet inhibiteur de la réplication du HIV-1 (virus HIV-1 [2]; pretreatment 30 minutes to 24 heures before stimulation by TNF, PMA or GM-CSF + II-6): n'affecte pas l'effet inhibiteur
